Source: patent US20250250251A1, “PIPERIDINYLPYRIDINYLCARBONITRILE DERIVATIVES AS INHIBITORS OF GLUTAMINYL-PEPTIDE CYCLOTRANSFERASE AND GLUTAMINYL-PEPTIDE CYCLOTRANSFERASE LIKE PROTEIN” (Boehringer Ingelheim International GmbH, priority 2024, published 2025)
Read-outs that look alike come from different tables or passages of the source.

Experiments:
[1] = Assay C: permeability in CACO-2 cells; type: in vitro ADME; details: human, Caco-2, pH 7.2
Procedure, shortened: (§1)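 Caco-2 monolayers were grown 10–25 days on porous filter inserts. Compound was applied to the apical or basolateral donor side for A-B or B-A transport (3 filters), and the receiver was sampled for up to 2 h. Quantitation was by HPLC-MS/MS or scintillation; efflux ratio = B-A/A-B permeability.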

CACO-2 cells = test: Assay C: permeability in CACO-2 cells; type: in vitro ADME; details: pairs with and without 4-fluoropiperidyl, CACO2 cells
Procedure, shortened: as §1

[2] = test system: SIRPα signalling induced by A549 cells; test: Assay B: SIRPα signalling assay using A549 cells; type: cell-based; details: Homo sapiens, Table 5, prior art compounds, read-out: Inhibition of SIRPα signalling induced by A549 cells: IC50
Procedure, shortened: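 Raji or A549 cells (5000/well) were each incubated with serially diluted compound for 48 h at 37 °C. Jurkat PathHunter SIRPαV1 reporter cells (15000/well) were then added for 5 h. Beta-galactosidase luminescence gave IC50 via a 4-parameter sigmoidal fit.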

murine hepatocytes = test: Assay E: stability in murine hepatocytes; type: in vitro ADME, mouse; details: Table 13, prior art compounds, 1 μM, 5% species serum
Procedure, shortened: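 Cryopreserved mouse hepatocytes, typically 1 Mio cells/mL in medium with 5% species serum, were dosed at 1 μM compound (0.05% DMSO) at 37 °C and sampled over 0–6 h. Parent decline was measured by HPLC-MS/MS and CLint calculated from dose/AUC, then scaled by well-stirred liver model.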

isolated QPCTL [3] = target: T1, isolated QPCTL (Homo sapiens, UniProt Q9NXS2); details: as disclosed in WO 2024/020517; read-out: Inhibitory activity on isolated QPCTL, IC50; cited from earlier work
[4] = test system: SIRPα signalling induced by Raji cells; test: Assay B: SIRPα signalling assay using Raji cells; type: cell-based; details: Homo sapiens, Table 5, prior art compounds, read-out: Inhibition of SIRPα signalling induced by Raji cells: IC50
Procedure, shortened: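 SIRPα signalling induced by Raji cells in a PathHunter reporter line, read as β-galactosidase complementation luminescence. Detection reagent 1 added for 15 min, then reagent 2 for 60 min in the dark, both at room temperature.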

CYP3A4 mRNA = test: Assay D: CYP induction screening assay in primary human hepatocytes; type: in vitro ADME; details: Table 10, prior art compounds, 48 h
Procedure, shortened: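 Single-donor cryopreserved human hepatocytes on collagen with Matrigel overlay were exposed to test compound at […] (0.1% DMSO) for 48 h, medium renewed at 24 h. CYP3A4 mRNA quantified by QuantiGene Plex/Luminex, normalised to geometric mean of RPL32, EIF4E2, GUSB and expressed relative to solvent control.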

isolated QPCTL [5] = target: T1, isolated QPCTL; details: as disclosed in WO 2023/205173; read-out: inhibitory activity on isolated QPCTL, IC50; cited from earlier work
QPCTL = target: T2, QPCTL (Homo sapiens, UniProt Q9NXS2); test: Assay A: biochemical QPCTL activity assay (MALDI-TOF MS, CD47 peptide substrate); details: Table 3, prior art compounds, read-out: Inhibition of QPCTL: IC50
T2 construct: made in house
Procedure, shortened: (§2)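 Enzyme and compound pre-incubated 10 min at 24° C in 20 mM Tris pH 7.5 with TCEP, BSA, Tween20, then 40 min with CD47 peptide (10 μM for QPCTL, 20 μM for QPCT). Pyroglutamate product/internal standard ratio by MALDI-TOF MS, normalized to controls; four-parameter logistic fit.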

QPCT = target: T3, QPCT (Homo sapiens, UniProt Q16769); test: Assay A: biochemical QPCT activity assay (MALDI-TOF MS, CD47 peptide substrate); details: Table 3, prior art compounds, read-out: Inhibition of QPCT: IC50
T3 construct: purchased Origine (OriGene) TP700028
Procedure, shortened: as §2

[6] = pairs with and without 4-fluoropiperidyl, CACO2 cells, read-out: Efflux ratio (BA/AB)

T3 sequence (Q16769 29-361): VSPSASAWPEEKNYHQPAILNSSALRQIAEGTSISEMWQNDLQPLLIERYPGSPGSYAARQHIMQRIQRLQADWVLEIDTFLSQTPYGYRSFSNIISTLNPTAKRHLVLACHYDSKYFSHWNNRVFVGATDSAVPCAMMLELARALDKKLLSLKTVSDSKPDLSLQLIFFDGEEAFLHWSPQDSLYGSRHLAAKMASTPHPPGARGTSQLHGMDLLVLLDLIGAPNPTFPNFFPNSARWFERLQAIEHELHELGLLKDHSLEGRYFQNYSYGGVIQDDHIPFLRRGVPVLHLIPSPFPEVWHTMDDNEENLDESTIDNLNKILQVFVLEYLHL
T1 sequence (Q9NXS2 whole entry): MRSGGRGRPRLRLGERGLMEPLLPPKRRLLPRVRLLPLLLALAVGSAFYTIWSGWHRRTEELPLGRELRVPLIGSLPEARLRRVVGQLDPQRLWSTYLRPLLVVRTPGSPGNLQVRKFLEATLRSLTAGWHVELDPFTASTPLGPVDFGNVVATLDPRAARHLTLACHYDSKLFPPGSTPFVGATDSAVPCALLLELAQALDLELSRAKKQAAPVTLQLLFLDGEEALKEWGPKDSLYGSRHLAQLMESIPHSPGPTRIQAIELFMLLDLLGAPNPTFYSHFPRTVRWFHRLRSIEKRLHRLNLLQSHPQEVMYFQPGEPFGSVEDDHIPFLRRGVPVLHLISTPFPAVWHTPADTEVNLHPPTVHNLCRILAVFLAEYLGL
T2 sequence (Q9NXS2 whole entry, species assumed): as the sequence (Q9NXS2 whole entry) above

| efflux ratio [1, 6] | CACO2 Perm. (CACO-2 cells) | IC50 [2] [nM] | Mouse Hepatocyte Stability QH (murine hepatocytes) [%] | IC50 [4] [nM] | n-fold induction of CYP3A4 at 10 μM (CYP3A4 mRNA) [n-fold] | IC50 (QPCTL) [nM] | IC50 (QPCT) [nM] | Papp A→B [1] [×10⁻⁶ cm/s] | efflux ratio ([1]; read-out: Efflux Ratio) | SMILES | IC50 (isolated QPCTL [3]) [nM] | IC50 (isolated QPCTL [5]) [nM] |
| --- | --- | --- | --- | --- | --- | --- | --- | --- | --- | --- | --- | --- |
|  | 0.3 10^−6 cm/sec | 70 |  |  |  |  |  |  |  | Cn1cnnc1C1CCN(c2c(C#N)cccc2-c2ccnnc2)CC1 [Compound 11] | < 100 |  |
|  |  | 396 | 61 | 778 | 1.5 | 10 | 24 | < 0.6 | > 21.7 | Cn1cc2c(-c3cccc(C#N)c3N3CCC(c4nncn4C)CC3)cncc2n1 [Compound 16, reference compound] | < 100 |  |
|  |  | 208 | 19 | 452 | 1.1 | 1 | 2 | < 0.02 | > 135 | COc1ccc(-c2ccnnc2)c(N2CCC(c3nncn3C)CC2)c1C#N [Compound 26, reference compound] | < 100 |  |
|  |  | 356 | 26 | 1380 | 0.8 | 1 | 5 | < 0.04 | > 40 | Cn1cnnc1C1CCN(c2c(C#N)cccc2-c2cnc3nccn3c2)CC1 [Compound 93, reference compound] | < 100 |  |
|  |  | 4240 | <12 | > 10000 | <1 | 149 | 164 | < 0.78 | > 5 | Cn1cnnc1C1CCN(c2c(C#N)cccc2-c2cnc3[nH]nc(O)c3c2)CC1 [Compound 113, reference compound] | < 100 |  |
|  | 50.0 10^−6 cm/sec |  |  |  |  |  |  |  |  | Cn1cnnc1C1(F)CCN(c2c(C#N)cccc2-c2ccc(F)nc2)CC1 [Example 56 in EP 23161417.3] |  |  |
|  | 4.9 10^−6 cm/sec |  |  |  |  |  |  |  |  | Cn1cnnc1C1(F)CCN(c2c(C#N)cccc2-c2cnc3nn(C(C)(C)C)cc3c2)CC1 [Example 62 in EP 22216126.7] |  |  |

Further lines, the molecule ahead of its results:

| SMILES | efflux ratio [1, 6] | CACO2 Perm. (CACO-2 cells) | IC50 [2] [nM] | Mouse Hepatocyte Stability QH (murine hepatocytes) [%] | IC50 [4] [nM] | n-fold induction of CYP3A4 at 10 μM (CYP3A4 mRNA) [n-fold] | IC50 (QPCTL) [nM] | IC50 (QPCT) [nM] | Papp A→B [1] [×10⁻⁶ cm/s] | efflux ratio ([1]; read-out: Efflux Ratio) | IC50 (isolated QPCTL [3]) [nM] | IC50 (isolated QPCTL [5]) [nM] |
| --- | --- | --- | --- | --- | --- | --- | --- | --- | --- | --- | --- | --- |
| Cn1cnnc1C1CCN(c2c(C#N)cc(F)cc2-c2cnc3nn(C(C)(C)C)c(C(F)(F)F)c3c2)CC1 | 5.7 | 17.0 10^−6 cm/sec |  |  |  |  |  |  |  |  |  |  |
| Cn1cnnc1C1(F)CCN(c2c(C#N)cc(F)cc2-c2cnc3nn(C(C)(C)C)c(C(F)(F)F)c3c2)CC1 | 0.8 | 51.0 10^−6 cm/sec |  |  |  |  |  |  |  |  |  |  |
| Cn1cnnc1C1CCN(c2c(C#N)cccc2-c2ccc(F)nc2)CC1 [(1)/QP5020, reference compound] |  | 28.0 10^−6 cm/sec | 8 | 83 |  |  |  |  |  |  |  |  |
| Cn1c(N)nnc1C1CCN(c2c(C#N)cccc2-c2ccc(F)nc2)CC1 [Compound 14, reference compound] |  |  | 4 | 33 | 4 | 1.9 |  |  |  |  |  | < 1000 |
| COc1ccc(-c2cnc3nccn3c2)c(N2CCC(c3nncn3C)CC2)c1C#N [Compound 94, reference compound] |  |  | 1300 | 30 | 2040 | <1 | 1 | 3 | < 1.4 | > 0.8 | < 100 |  |
| Cn1cnnc1C1(F)CCN(c2c(C#N)cccc2-c2ccnnc2)CC1 [Example 52 in EP 22216126.7] |  | 15.0 10^−6 cm/sec |  |  |  |  |  |  |  |  |  |  |
